Experimental data reported in patent US9758395B2, “Lysine-based polymer coagulants for use in clarification of process waters” (priority 2011, dated 2017).

Assay: Solubility of lysine HCl in water with temperature
Assay type: physicochemical
Conditions: room temperature (20-25° C.), monohydrochloride
Protocol: The solubilities of lysine were essentially the same with and without the maleic acid added to the water. For example, samples of lysine HCl were added to water in sealed, glass bottles, shaken, and placed in the forced-air oven at various temperatures. These were manually shaken periodically over the next few hours, then left to dissolve overnight. […] At 70° C., the lysine completely dissolved to 60%; at 80° C. to 62%; at 90° C. to 64%; at 100° C. to 66% lysine by weight in water. […] Representative samples of these materials were dried and polymerized at 220° C., 5 to 7 hours, under nitrogen.

SMILES: Cl.NCCCC[C@H](N)C(=O)O [lysine HCl, L-lysine monohydrochloride]
- solubility in water (listed as lysine): 50 % by weight
- solubility in water: about 50 % by weight
